Results on twelve compounds are retold here after patent US20250018049A1, “COMPOUNDS FOR DEGRADING CYCLIN-DEPENDENT KINASE 2 VIA UBIQUITIN PROTEOSOME PATHWAY” (NIKANG THERAPEUTICS, INC., priority 2020, published 2025).

Usually IC50 stands for the concentration that inhibits the measured activity by half.

Bounds are passed on as bounds.

What all share (format): cell-based
Experiment [1] addresses T1, CDK2 (Homo sapiens, UniProt P24941). In words: Phospho-Rb HTRF measurement in OVCAR3 cells (inhibition of CDK2). Set-up: High-Throughput Measurement of Cellular Endogenous CDK2; endogenous in cells; host or cells: OVCAR3. As to conditions: pRB(S807/811) assay, 24 h compound treatment. Background: In TR-FRET formats the signal depends on donor and acceptor labels being close together.

For experiment [2], the target named is T1, CDK2. As to the kind of experiment: NanoBRET CDK2 engagement assay. Set-up: expressed in transfected cells. As to conditions: OVCAR3 cells with stable CDK2-Luciferase vector, 24 hours treatment. Put shortly: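 OVCAR3 cells stably expressing CDK2-luciferase, in Opti-MEM with 1% FBS, treated 24 h at 37° C with compound from 3 μM in ½-log steps to 0.3 nM; NanoBRET tracer present for final 2 h. Donor/acceptor emission read; engagement normalized to DMSO as 100% signal, IC50 by curve fit.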
(In general: In BRET a luciferase serves as donor, and the signal depends on an acceptor being close.)

For experiment [3], the target named is T1, CDK2. As to the kind of experiment: CDK2 HTRF assay (cellular endogenous CDK2 level). Set-up: High-Throughput Measurement of Cellular Endogenous CDK2; endogenous in cells; host or cells: OVCAR3. The note with it: OVCAR-3; OVCAR3 cells, 24 hours, 0.3 to 10,000 nM; read-out: max degradation of CDK2. As to the method:
Effects of compounds on cellular CDK2 level can be monitored by a high-throughput HTRF assay or traditional Western Blot assay.
To determine half maximal degradation concentration (DC50) values of compounds, cellular CDK2 level was measured in 96-well format using HTRF total CDK2 cellular kit (Cat #64CDK2TPEG) from Cisbio.
On Day 1, OVCAR3 cells were seeded into 96-well tissue-culture treated plates at 20,000 cells/well in 200 μL and incubated overnight at 37° C. in CO2 atmosphere. On Day 2 cells were treated with compounds at concentration ranging from 0.3 to 10,000 nM using HP D300 digital dispenser. 24 hours after compound treatment, cell culture media was removed by flicking the plate and tapping the plate against clean paper towel. Immediately 30 μL 1× lysis buffer was supplemented from the kit and the plate was incubated at room temperature on shaker for 30 min. After homogenization by pipetting up and down, 8 μL cell lysate from 96-well cell culture plate was transferred to 384-well small volume white detection plate. 2 μL premixed detection solution was added and the plate was covered with sealer. To prepare the detection solution, d2 conjugated-CDK2 antibody and Eu-cryptate conjugated CDK2 antibody were diluted into detection buffer following manufacturer's instruction. Detection plates were incubated overnight at room temperature and read on ClarioStar (BMG Labtech) in TR-FRET mode (665 nM and 620 nM). The TR-FRET ratio (665 nM/620 nM) was plotted against the compound concentration and normalized to DMSO controls. Half maximal degradation concentration (DC50) values were calculated with a four-parameter logistic fit using GraphPad Prism (version 8; La Jolla, CA). FIG. 1 provides a dose-response curve of Compound 1 in Compound Table I in cellular CDK2 HTRF assay. IC50 in FIG. 1 is the same as DC50. Compounds 1, 13, 16, 22, 23, 28, 34, 35, 36, 37, 38, 39, 42, 48, 50, 51, 53, 54, 55, 56, 57, 58, 59, 60, 61, 62, 63, 65, 66, 68, 69, 70 were tested and max degradation of CDK2 observed was from about 35% to about 90%.

`CN(CCN(C)S(=O)(=O)N1CCC(Nc2ncc3ccc(=O)n(C4CCCC4)c3n2)CC1)Cc1ccc(N(C)c2cccc3c2C(=O)N(C2CCC(=O)NC2=O)C3=O)cc1` (stereo not drawn) [Compound 22, 4-((8-cyclopentyl-7-oxo-7,8-dihydropyrido[2,3-d]-pyrimidin-2-yl)amino)-N-(2-((4-((2-(2,6-dioxopiperidin-3-yl)-1,3-dioxoisoindolin-4-yl)(methyl)amino)benzyl)(methyl)amino)ethyl)-N-methylpiperidine-1-sulfonamide]: the IC50 on CDK2 [1] was found to be 798 nM; on CDK2 [2], 903 nM. Besides, the Dmax on CDK2 [3] lay in the range of 35 to 90%.

Consider `CN(CCCN1CCC(c2cccc3c2n(C)c(=O)n3C2CCC(=O)NC2=O)CC1)S(=O)(=O)N1CCC(Nc2ncc3ccc(=O)n(C4CCCC4)c3n2)CC1` (stereo not drawn) [Compound 23, 4-((8-cyclopentyl-7-oxo-7,8-dihydropyrido[2,3-d]pyrimidin-2-yl)amino)-N-(3-(4-(1-(2,6-dioxo-piperidin-3-yl)-3-methyl-2-oxo-2,3-dihydro-1H-benzo[d]imidazol-4-yl)piperidin-1-yl)propyl)-N-methylpiperidine-1-sulfonamide], for which the figures for the IC50 at CDK2 [1] and against CDK2 [2] were 13.6 nM and less than 1 nM, respectively. Moreover, on CDK2 [3], the Dmax fell in the range of 35 to 90%.

As for `O=C1CCC(N2Cc3cc(C4CCN(CC5CCN(c6cccc(S(=O)(=O)N7CCC(Nc8ncc9ccc(=O)n(C%10CCCC%10)c9n8)CC7)c6)CC5)CC4)ccc3C2=O)C(=O)N1` (stereo not drawn) [Compound 35, 3-(5-(1-((1-(3-((4-((8-cyclopentyl-7-oxo-7,8-dihydropyrido[2,3-d]pyrimidin-2-yl)amino)-piperidin-1-yl)sulfonyl)phenyl)piperidin-4-yl)-methyl)piperidin-4-yl)-1-oxoisoindolin-2-yl)piperidine-2,6-dione], the IC50 against CDK2 [1] came out at 71100 nM; at CDK2 [2], 139 nM. Further, the Dmax at CDK2 [3] is 35 to 90%.

Consider `O=C1CCC(N2Cc3cc(N4CCN(CC5CCN(c6cccc(S(=O)(=O)N7CCC(Nc8ncc9ccc(=O)n(C%10CCCC%10)c9n8)CC7)c6)CC5)CC4)ccc3C2=O)C(=O)N1` (stereo not drawn) [Compound 36, 3-(5-(4-((1-(3-((4-((8-cyclopentyl-7-oxo-7,8-dihydropyrido[2,3-d]pyrimidin-2-yl)amino)-piperidin-1-yl)sulfonyl)phenyl)piperidin-4-yl)-methyl)piperazin-1-yl)-1-oxoisoindolin-2-yl)-piperidine-2,6-dione], for which the IC50 against CDK2 [1] was 25.7 nM; against CDK2 [2] it was 212 nM. Also, the Dmax on CDK2 [3] is 35 to 90%.

Regarding `O=C1CCC(N2Cc3cc(C4CN(Cc5cccc(S(=O)(=O)N6CCC(Nc7ncc8ccc(=O)n(C9CCCC9)c8n7)CC6)c5)C4)ccc3C2=O)C(=O)N1` (stereo not drawn) [Compound 37, 3-(5-(1-(3-((4-((8-cyclopentyl-7-oxo-7,8-dihydropyrido[2,3-d]pyrimidin-2-yl)amino)-piperidin-1-yl)sulfonyl)benzyl)azetidin-3-yl)-1-oxoisoindolin-2-yl)piperidine-2,6-dione], the IC50 at CDK2 [1] is 25.7 nM; on CDK2 [2], 190 nM. In addition, the Dmax at CDK2 [3] was in the range of 35 to 90%.

Consider `O=C1CCC(N2Cc3cc(N4CCC(CN5CCN(c6cccc(S(=O)(=O)N7CCC(Nc8ncc9ccc(=O)n(C%10CCCC%10)c9n8)CC7)c6)CC5)CC4)ccc3C2=O)C(=O)N1` (stereo not drawn) [Compound 38, 3-(5-(4-((4-(3-((4-((8-cyclopentyl-7-oxo-7,8-dihydropyrido[2,3-d]pyrimidin-2-yl)amino)-piperidin-1-yl)sulfonyl)phenyl)piperazin-1-yl)-methyl)piperidin-1-yl)-1-oxoisoindolin-2-yl)-piperidine-2,6-dione], for which the results for the IC50 against CDK2 [1] and on CDK2 [2] were 11.1 nM and 42.3 nM, respectively. For the same compound, the Dmax at CDK2 [3] is 35 to 90%.

`Cn1c(=O)n(C2CCC(=O)NC2=O)c2cccc(C3CCN(C4CCN(c5cccc(S(=O)(=O)N6CCC(Nc7ncc8ccc(=O)n(C9CCCC9)c8n7)CC6)c5)CC4)CC3)c21` (stereo not drawn) [Compound 39, 3-(4-(1′-(3-((4-((8-cyclopentyl-7-oxo-7,8-dihydro-pyrido[2,3-d]pyrimidin-2-yl)amino)piperidin-1-yl)sulfonyl)phenyl)-[1,4′-bipiperidin]-4-yl)-3-methyl-2-oxo-2,3-dihydro-1H-benzo[d]imidazol-1-yl)piperidine-2,6-dione]: the results for the IC50 against CDK2 [1] and against CDK2 [2] were 490 nM and 94 nM, respectively. The Dmax at CDK2 [3] lay in the range of 35 to 90%.

For the compound `O=C1CCC(N2Cc3cc(N4CCN(Cc5cccc(S(=O)(=O)N6CCC(Nc7ncc8ccc(=O)n(C9CCCC9)c8n7)CC6)c5)CC4)c(F)cc3C2=O)C(=O)N1` (stereo not drawn) [Compound 42, 3-(5-(4-(3-((4-((8-cyclopentyl-7-oxo-7,8-dihydropyrido[2,3-d]pyrimidin-2-yl)amino)-piperidin-1-yl)sulfonyl)benzyl)piperazin-1-yl)-6-fluoro-1-oxoisoindolin-2-yl)piperidine-2,6-dione], the IC50 on CDK2 [1] worked out at 24.7 nM; at CDK2 [2], 297 nM. For the same compound, the Dmax on CDK2 [3] is 35 to 90%.

For `O=C1CCC(N2C(=O)c3cc(F)c(N4CCN(Cc5cccc(S(=O)(=O)N6CCC(Nc7ncc8ccc(=O)n(C9CCCC9)c8n7)CC6)c5)CC4)cc3C2=O)C(=O)N1` (stereo not drawn) [Compound 48, 5-(4-(3-((4-((8-cyclopentyl-7-oxo-7,8-dihydro-pyrido[2,3-d]pyrimidin-2-yl)amino)piperidin-1-yl)sulfonyl)-benzyl)piperazin-1-yl)-2-(2,6-dioxo-piperidin-3-yl)-6-fluoroisoindoline-1,3-dione], the IC50 against CDK2 [1] is 131 nM; on CDK2 [2], 722 nM. Moreover, the Dmax at CDK2 [3] lay within 35 to 90%.

On to `O=C1CCC(N2Cc3cc(N4CCN(Cc5cccc(S(=O)(=O)N6CCC(Nc7ncc8ccc(=O)n(C9CCCC9)c8n7)CC6)c5)CC4)ccc3C2=O)C(=O)N1` (stereo not drawn) [Compound 50, 3-(5-(4-(3-((4-((8-cyclopentyl-7-oxo-7,8-dihydropyrido[2,3-d]pyrimidin-2-yl)-amino)-piperidin-1-yl)sulfonyl)benzyl)-piperazin-1-yl)-1-oxoisoindolin-2-yl)piperidine-2,6-dione], for which the IC50 against CDK2 [1] worked out at 49 nM; against CDK2 [2] it was 289 nM. The Dmax on CDK2 [3] was in the range of 35 to 90%.

Turning to `O=C1CCC(N2Cc3cc(N4CC5CCC4CN5Cc4cccc(S(=O)(=O)N5CCC(Nc6ncc7ccc(=O)n(C8CCCC8)c7n6)CC5)c4)ccc3C2=O)C(=O)N1` (stereo not drawn) [Compound 51, 3-(5-(5-(3-((4-((8-cyclopentyl-7-oxo-7,8-dihydropyrido[2,3-d]pyrimidin-2-yl)amino)-piperidin-1-yl)sulfonyl)benzyl)-2,5-diazabicyclo[2.2.2]octan-2-yl)-1-oxoisoindolin-2-yl)piperidine-2,6-dione], the IC50 against CDK2 [1] amounted to 154 nM; on CDK2 [2], 198 nM. The Dmax on CDK2 [3] was 35 to 90%.

Turning to `O=C1CCC(N2Cc3cc(N4CC5CC4CN5Cc4cccc(S(=O)(=O)N5CCC(Nc6ncc7ccc(=O)n(C8CCCC8)c7n6)CC5)c4)ccc3C2=O)C(=O)N1` (stereo not drawn) [Compound 53, 3-(5-(5-(3-((4-((8-cyclopentyl-7-oxo-7,8-dihydropyrido[2,3-d]pyrimidin-2-yl)amino)-piperidin-1-yl)sulfonyl)benzyl)-2,5-diazabicyclo-[2.2.1]heptan-2-yl)-1-oxoisoindolin-2-yl)-piperidine-2,6-dione], the IC50 against CDK2 [1] is 259 nM; against CDK2 [2], 152 nM. Also, at CDK2 [3], the Dmax lay in the range of 35 to 90%.
